Laboratory results taken from PMC9077246, “Novel spirocyclic tranylcypromine derivatives as lysine-specific demethylase 1 (LSD1) inhibitors” (RSC Advances, 2018).
Where a name gives a salt, the structure may show the parent alone.

Columns and labels:
[1] = target: T1, MAO-A (Homo sapiens, UniProt P21397); assay: biochemical
T1 sequence (P21397 1-527): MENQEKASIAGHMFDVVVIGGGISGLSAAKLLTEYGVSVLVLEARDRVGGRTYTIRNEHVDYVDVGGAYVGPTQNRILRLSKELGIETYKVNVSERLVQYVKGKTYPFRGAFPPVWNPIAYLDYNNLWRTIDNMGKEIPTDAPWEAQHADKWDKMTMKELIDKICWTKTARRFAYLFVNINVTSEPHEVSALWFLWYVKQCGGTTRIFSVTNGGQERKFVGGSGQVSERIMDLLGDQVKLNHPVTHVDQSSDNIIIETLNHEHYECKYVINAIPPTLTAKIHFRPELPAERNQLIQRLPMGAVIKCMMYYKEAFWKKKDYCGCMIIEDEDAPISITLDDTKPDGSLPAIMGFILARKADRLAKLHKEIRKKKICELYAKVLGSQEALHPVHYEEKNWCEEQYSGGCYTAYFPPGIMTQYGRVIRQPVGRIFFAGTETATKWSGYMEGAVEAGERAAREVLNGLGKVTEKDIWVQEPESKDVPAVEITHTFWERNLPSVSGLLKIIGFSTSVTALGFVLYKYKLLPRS
Experimental: (§1) MAO-A and MAO-B enzymes were purchased from Sigma-Aldrich and the inhibition assay was tested with Promega MAO-Glo™ Assay kit according to the manufacturer's protocol. The luminescent signals were detected using Envision (PerkinElmer). The test was carried out in triplicate. And the IC50 data was calculated using the software GraphPad Prism 5, and chosen the equation “sigmoidal dose–response (variable slope)” for curve fitting.

[2] = target: T2, Recombinant human LSD1 (172–852 aa) (Homo sapiens, UniProt O60341); assay: biochemical
Experimental: (§2) LSD1 or LSD2 enzyme inhibition assay was performed with Lance Ultra LSD1 Histone H3-Lysine 4 Demethylase Assay kit (Perkin Elmer) according to the manufacturer's protocol. […] The test was carried out in triplicate. And the IC50 data was calculated using the software GraphPad Prism 5, and chosen the equation “sigmoidal dose–response (variable slope)” for curve fitting.

[3] = target: T3, MAO-B (Homo sapiens, UniProt P27338); assay: biochemical
T3 sequence (P27338 1-520): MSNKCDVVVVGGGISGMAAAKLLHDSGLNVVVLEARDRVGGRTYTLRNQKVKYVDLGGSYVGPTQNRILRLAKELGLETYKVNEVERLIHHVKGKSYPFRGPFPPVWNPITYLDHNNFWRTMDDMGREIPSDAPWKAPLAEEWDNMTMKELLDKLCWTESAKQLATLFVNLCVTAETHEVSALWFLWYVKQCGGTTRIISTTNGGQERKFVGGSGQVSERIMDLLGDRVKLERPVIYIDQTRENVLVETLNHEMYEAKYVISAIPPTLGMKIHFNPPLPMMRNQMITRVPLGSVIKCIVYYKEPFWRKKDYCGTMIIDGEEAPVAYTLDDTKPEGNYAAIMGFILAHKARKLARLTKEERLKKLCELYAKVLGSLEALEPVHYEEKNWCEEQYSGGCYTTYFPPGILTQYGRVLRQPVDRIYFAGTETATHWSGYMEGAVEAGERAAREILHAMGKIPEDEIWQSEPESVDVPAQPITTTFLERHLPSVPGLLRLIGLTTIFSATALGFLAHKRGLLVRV
Experimental: as §1

[4] = target: T4, full-length LSD2 (Homo sapiens, UniProt Q8NB78); assay: LSD2 inhibition assay (Lance Ultra kit, TR-FRET); type: biochemical
T4 sequence (Q8NB78 1-822): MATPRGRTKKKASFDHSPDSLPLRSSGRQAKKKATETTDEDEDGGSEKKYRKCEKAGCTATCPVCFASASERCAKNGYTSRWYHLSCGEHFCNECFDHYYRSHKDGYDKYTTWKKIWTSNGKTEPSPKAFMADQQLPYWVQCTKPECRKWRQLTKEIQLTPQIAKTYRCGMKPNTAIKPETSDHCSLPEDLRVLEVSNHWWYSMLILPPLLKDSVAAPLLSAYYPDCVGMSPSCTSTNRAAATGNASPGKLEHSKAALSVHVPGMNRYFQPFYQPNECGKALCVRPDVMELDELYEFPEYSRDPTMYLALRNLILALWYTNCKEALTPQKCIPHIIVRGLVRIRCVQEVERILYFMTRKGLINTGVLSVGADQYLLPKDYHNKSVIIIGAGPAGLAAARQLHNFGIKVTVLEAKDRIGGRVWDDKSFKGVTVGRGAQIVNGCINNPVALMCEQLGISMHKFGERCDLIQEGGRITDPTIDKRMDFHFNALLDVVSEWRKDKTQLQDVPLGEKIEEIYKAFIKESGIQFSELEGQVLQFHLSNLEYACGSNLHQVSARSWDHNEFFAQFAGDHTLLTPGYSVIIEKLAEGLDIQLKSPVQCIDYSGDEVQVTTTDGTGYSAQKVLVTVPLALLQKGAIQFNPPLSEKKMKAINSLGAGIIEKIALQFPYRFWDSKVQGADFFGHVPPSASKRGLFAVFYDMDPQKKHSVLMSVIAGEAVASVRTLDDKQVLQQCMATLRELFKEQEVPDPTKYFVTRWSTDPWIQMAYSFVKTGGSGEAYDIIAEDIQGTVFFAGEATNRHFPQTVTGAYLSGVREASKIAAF
Experimental: as §2

[5] = target: T2, Recombinant human LSD1 (172–852 aa); conditions: 23a, 23b vs 21a, 21b
Experimental: as §2

[6] = target: T1, MAO-A; conditions: IC50 values for LSD1 vs. MAO-A
Experimental: as §1

[7] = MAO-A, IC50, Table 1, mean ± SEM, eight-point experiments, three independent experiments
[8] = MAO-B, IC50, Table 1, mean ± SEM, eight-point experiments, three independent experiments

| Compound | IC50 ([1]; MAO-A IC50) | IC50 [2] | IC50 ([3]; MAO-B IC50) | IC50 [4] | IC50 [1, 7] | IC50 [3, 8] | fold less potent at LSD1 than the unsubstituted derivatives 21a and 21b [5] | selectivity index LSD1 vs. MAO-A in words [6] |
| --- | --- | --- | --- | --- | --- | --- | --- | --- |
| N[C@@H]1CC12CCc1cc(-c3ccccc3)ccc12 (stereo in doubt) [Compound 28a, (2R)-5′-phenyl-2′,3′-dihydrospiro[cyclopropane-1,1′-inden]-2-amine hydrochloride] | 0.46 µM | 0.1 ± 0.01 µM | 0.17 µM | 94 µM | – | – | – | – |
| COc1ccc(F)cc1CN[C@H]1CC12CCc1ccccc12 (stereo in doubt) [Compound 17b, (2S)-N-(5-Fluoro-2-methoxybenzyl)-2′,3′-dihydrospiro[cyclopropane-1,1′-inden]-2-amine] | – | 0.017 ± 0.003 µM | – | 1.7 ± 0.5 µM | 0.12 ± 0.01 µM | 27 ± 4 µM | – | – |
| Fc1ncccc1CN[C@H]1CC12CCc1ccccc12 (stereo in doubt) [Compound 23b, (2S)-N-((2-Fluoropyridin-3-yl)methyl)-2′,3′-dihydrospiro[cyclopropane-1,1′-inden]-2-amine] | – | 0.07 ± 0.003 µM | – | 8.7 ± 0.8 µM | 9.8 ± 0.8 µM | 29 ± 4 µM | approximately 4 fold | – |
| COc1ccc(F)cc1CN[C@@H]1CC12CCc1ccccc12 (stereo in doubt) [Compound 17a, (2R)-N-(5-Fluoro-2-methoxybenzyl)-2′,3′-dihydrospiro[cyclopropane-1,1′-inden]-2-amine] | – | 0.0066 ± 0.0015 µM | – | 0.8 ± 0.27 µM | 0.92 ± 0.18 µM | 2.3 ± 0.4 µM | – | – |
| COc1cc(F)ccc1CN[C@@H]1CC12CCc1ccccc12 (stereo in doubt) [Compound 18a, (2R)-N-(4-Fluoro-2-methoxybenzyl)-2′,3′-dihydrospiro[cyclopropane-1,1′-inden]-2-amine] | – | 0.0071 ± 0.0013 µM | – | 0.66 ± 0.06 µM | 2.2 ± 0.7 µM | 8.7 ± 1.1 µM | – | – |
| c1ccc(CN[C@H]2CC23CCc2ccccc23)cc1 (stereo in doubt) [Compound 13b, (2S)-N-Benzyl-2′,3′-dihydrospiro[cyclopropane-1,1′-inden]-2-amine] | – | 0.11 ± 0.02 µM | – | 2 ± 0.2 µM | 0.13 ± 0.01 µM | 5.1 ± 0.1 µM | – | low |
| COc1cc(F)ccc1CN[C@H]1CC12CCc1ccccc12 (stereo in doubt) [Compound 18b, (2S)-N-(4-Fluoro-2-methoxybenzyl)-2′,3′-dihydrospiro[cyclopropane-1,1′-inden]-2-amine] | – | 0.015 ± 0.003 µM | – | 0.49 ± 0.1 µM | 0.09 ± 0.01 µM | 31 ± 4 µM | – | low |
| Fc1ncccc1CN[C@@H]1CC12CCc1ccccc12 (mixture of isomers) [Compound 23a, (2R)-N-((2-Fluoropyridin-3-yl)methyl)-2′,3′-dihydrospiro[cyclopropane-1,1′-inden]-2-amine] | – | 0.064 ± 0.001 µM | – | 13 ± 3 µM | 9.7 ± 1.5 µM | 8.2 ± 1.5 µM | approximately 4 fold | – |
